# System: patients with AdvSM and other myeloid malignancies
# Experiment: Safety: adverse events graded by NCI CTCAE v4.03, phase 1 EXPLORER trial
# Format: in vivo
# Excerpt: The safety population included all enrolled patients and was used to report AEs and PROs (in those who completed the questionnaire). The dose-determining population included all patients in a cohort in part 1 who received ≥21 prescribed avapritinib doses in C1 and completed follow-up through C1, or experienced DLT. The determination of the MTD and RP2D were based on the dose-determining population. […] The AdvSM safety population was also used to report AEs and OS. […] The response-evaluable population was used to report adjudicated response rates and PFS. The PK population comprised all patients with sufficient plasma concentration–time data to reliably estimate the PK parameters of avapritinib.
# Safety assessments included determination of ECOG performance status, clinical laboratory testing, vital signs, electrocardiograms, brain imaging (MRI or CT scan) and physical examinations. AEs were graded according to National Cancer Institute Common Terminology Criteria (v4.03)[40]. Treatment-emergent AEs were defined as any AE occurring between the first dose of avapritinib through 30 d after the last dose of avapritinib, any event that was considered related to the study drug regardless of the start date of the event, or any event that was present at baseline but worsened intensity or was subsequently considered related to the study drug by the investigator.
compound,measurement,setting,value
Cn1cc(-c2cc3c(N4CCN(c5ncc([C@@](C)(N)c6ccc(F)cc6)cn5)CC4)ncnn3c2)cn1 [avapritinib],"Arthralgia AE, patients","human, in vivo",3%
same,"Cognitive effects (memory impairment, cognitive disorder, confusional state and encephalopathy), patients","human, in vivo",30%
same,"Cognitive effects leading to treatment discontinuation, patients","human, in vivo",3%
same,Discontinuation due to related AEs,"human, in vivo",10%
same,Discontinuation due to unrelated AEs,"human, in vivo",9%
same,"Grade 1 skin hypopigmentation, patients","human, in vivo",3%
same,"Hair color changes, patients","human, in vivo",19%
same,"Hypokalemia AE, patients","human, in vivo",3%
same,"Intracranial bleeding (ICB) in the absence of prior severe thrombocytopenia (platelets <50 × 10^9/l), patients","human, in vivo",1%
same,"Intracranial bleeding (ICB), patients","human, in vivo",13%
same,Intracranial bleeding: cerebral hemorrhage,"human, in vivo",0 n (%)
same,Median time to first dose reduction,"human, in vivo",8 weeks
same,Patients with at least one dose reduction due to AEs,"human, in vivo",72%
same,"Peripheral edema AE, patients","human, in vivo",45%
same,Anaphylactic reaction,in vivo,one
same,ICB events associated with antecedent severe thrombocytopenia (platelet count <50 × 10^9/l),in vivo,seven
same,"ICB events, asymptomatic (grade 1)",in vivo,Five
same,"ICB events, grade 2",in vivo,two
same,"ICB events, grade 3",in vivo,one
same,"ICB events, grade 5","of nine patients with ICB, associated with head trauma",one
same,Deaths due to AEs,one (ICB) considered treatment related,six
